# Measurements published in PMC6429214, “Design, Synthesis and Biological Evaluation of Isoxazole-Based CK1 Inhibitors Modified with Chiral Pyrrolidine Scaffolds” (Molecules, 2019).
# What was measured:
# Experiment in all cases: 33PanQinase panel
# Type in all cases: biochemical
# [1] = biological target: T1, LTK (Homo sapiens, UniProt P29376); conditions: read-out: Residual Activity (%)
# T1 construct: purchased ProQinase
# Summary of the method: (§1)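 The compound is tested at 1 µM against a panel of 320 wild-type protein kinases. A radiometric, activity-based 33P readout gives kinase activity, reported as residual percentage of the DMSO control; final DMSO is 1%.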
# [2] = biological target: T2, CLK3 (Homo sapiens, UniProt P49761); conditions: CLK3, 1 µM; read-out: Residual Activity (%)
# T2 construct: purchased ProQinase
# Summary of the method: as §1
# [3] = biological target: T3, VEGF-R1 (Homo sapiens, UniProt P17948); conditions: VEGF-R1, 1 µM; read-out: Residual Activity (%)
# T3 construct: purchased ProQinase
# Summary of the method: as §1
# [4] = biological target: T4, CDK6/CycD3 (Homo sapiens, UniProt Q00534); conditions: CDK6/CycD3, 1 µM; read-out: Residual Activity (%)
# T4 construct: purchased ProQinase
# Summary of the method: as §1
# [5] = biological target: T5, CAMK2D (Homo sapiens, UniProt Q13557); conditions: read-out: Residual Activity (%)
# T5 construct: purchased ProQinase
# Summary of the method: as §1
# [6] = biological target: T6, FRK (Homo sapiens, UniProt P42685); conditions: read-out: Residual Activity (%)
# T6 construct: purchased ProQinase
# Summary of the method: as §1
# [7] = biological target: T7, CDK1/CycE1 (Homo sapiens, UniProt P06493); conditions: CDK1/CycE1, 1 µM; read-out: Residual Activity (%)
# T7 construct: purchased ProQinase
# Summary of the method: as §1
# [8] = biological target: T8, MEK1 (Homo sapiens, UniProt Q02750); conditions: MEK1, 1 µM; read-out: Residual Activity (%)
# T8 construct: purchased ProQinase
# Summary of the method: as §1
# [9] = biological target: T9, Aurora-A (Homo sapiens, UniProt O14965); conditions: read-out: Residual Activity (%)
# T9 construct: purchased ProQinase
# Summary of the method: as §1
# [10] = biological target: T10, TXK (Homo sapiens, UniProt P42681); conditions: read-out: Residual Activity (%)
# T10 construct: purchased ProQinase
# Summary of the method: as §1
# [11] = biological target: T11, ACV-R2A (Homo sapiens, UniProt P27037); conditions: read-out: Residual Activity (%)
# T11 construct: purchased ProQinase
# Summary of the method: as §1
# [12] = biological target: T12, NEK7 (Homo sapiens, UniProt Q8TDX7); conditions: NEK7, 1 µM; read-out: Residual Activity (%)
# T12 construct: purchased ProQinase
# Summary of the method: as §1
# [13] = biological target: T13, GSK3-alpha (Homo sapiens, UniProt P49840); conditions: read-out: Residual Activity (%)
# T13 construct: purchased ProQinase
# Summary of the method: as §1
# [14] = biological target: T14, MEKK2 (Homo sapiens, UniProt Q9Y2U5); conditions: MEKK2, 1 µM; read-out: Residual Activity (%)
# T14 construct: purchased ProQinase
# Summary of the method: as §1
# [15] = biological target: T15, MAPKAPK3 (Homo sapiens, UniProt Q16644); conditions: MAPKAPK3, 1 µM; read-out: Residual Activity (%)
# T15 construct: purchased ProQinase
# Summary of the method: as §1
# [16] = biological target: T16, IRAK1 (Homo sapiens, UniProt P51617); conditions: IRAK1, 1 µM; read-out: Residual Activity (%)
# T16 construct: purchased ProQinase
# Summary of the method: as §1
# [17] = biological target: T17, VRK2 (Homo sapiens, UniProt Q86Y07); conditions: VRK2, 1 µM; read-out: Residual Activity (%)
# T17 construct: purchased ProQinase
# Summary of the method: as §1
# [18] = biological target: T18, HIPK3 (Homo sapiens, UniProt Q9H422); conditions: HIPK3, 1 µM; read-out: Residual Activity (%)
# T18 construct: purchased ProQinase
# Summary of the method: as §1
# [19] = biological target: T19, Aurora-B (Homo sapiens, UniProt Q96GD4); conditions: read-out: Residual Activity (%)
# T19 construct: purchased ProQinase
# Summary of the method: as §1
# [20] = biological target: T20, EEF2K (Homo sapiens, UniProt O00418); conditions: read-out: Residual Activity (%)
# T20 construct: purchased ProQinase
# Summary of the method: as §1
# [21] = biological target: T21, PRKD2 (Homo sapiens, UniProt Q9BZL6); conditions: PRKD2, 1 µM; read-out: Residual Activity (%)
# T21 construct: purchased ProQinase
# Summary of the method: as §1
# [22] = biological target: T22, RIPK2 (Homo sapiens, UniProt O43353); conditions: RIPK2, 1 µM; read-out: Residual Activity (%)
# T22 construct: purchased ProQinase
# Summary of the method: as §1
# [23] = biological target: T23, HIPK4 (Homo sapiens, UniProt Q8NE63); conditions: HIPK4, 1 µM; read-out: Residual Activity (%)
# T23 construct: purchased ProQinase
# Summary of the method: as §1
# [24] = biological target: T24, CLK2 (Homo sapiens, UniProt P49760); conditions: CLK2, 1 µM; read-out: Residual Activity (%)
# T24 construct: purchased ProQinase
# Summary of the method: as §1
# [25] = biological target: T25, KIT (Homo sapiens, UniProt P10721); conditions: read-out: Residual Activity (%)
# T25 construct: purchased ProQinase
# Summary of the method: as §1
# [26] = biological target: T26, JNK1 (Homo sapiens, UniProt P45983); conditions: JNK1, 1 µM; read-out: Residual Activity (%)
# T26 construct: purchased ProQinase
# Summary of the method: as §1
# T5 sequence (Q13557 whole entry): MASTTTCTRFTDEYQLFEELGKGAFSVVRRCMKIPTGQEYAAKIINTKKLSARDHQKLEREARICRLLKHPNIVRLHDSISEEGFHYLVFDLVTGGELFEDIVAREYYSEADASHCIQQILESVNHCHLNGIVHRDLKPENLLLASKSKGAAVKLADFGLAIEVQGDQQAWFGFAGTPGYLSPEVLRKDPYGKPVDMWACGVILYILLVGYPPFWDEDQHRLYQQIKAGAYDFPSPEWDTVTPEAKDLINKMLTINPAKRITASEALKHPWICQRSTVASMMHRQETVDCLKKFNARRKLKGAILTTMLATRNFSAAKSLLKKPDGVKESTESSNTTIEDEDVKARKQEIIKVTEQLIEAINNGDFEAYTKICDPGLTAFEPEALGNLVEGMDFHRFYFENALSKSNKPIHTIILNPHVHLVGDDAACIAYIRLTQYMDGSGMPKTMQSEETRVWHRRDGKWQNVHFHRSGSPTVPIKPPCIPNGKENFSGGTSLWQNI
# T16 sequence (P51617 whole entry): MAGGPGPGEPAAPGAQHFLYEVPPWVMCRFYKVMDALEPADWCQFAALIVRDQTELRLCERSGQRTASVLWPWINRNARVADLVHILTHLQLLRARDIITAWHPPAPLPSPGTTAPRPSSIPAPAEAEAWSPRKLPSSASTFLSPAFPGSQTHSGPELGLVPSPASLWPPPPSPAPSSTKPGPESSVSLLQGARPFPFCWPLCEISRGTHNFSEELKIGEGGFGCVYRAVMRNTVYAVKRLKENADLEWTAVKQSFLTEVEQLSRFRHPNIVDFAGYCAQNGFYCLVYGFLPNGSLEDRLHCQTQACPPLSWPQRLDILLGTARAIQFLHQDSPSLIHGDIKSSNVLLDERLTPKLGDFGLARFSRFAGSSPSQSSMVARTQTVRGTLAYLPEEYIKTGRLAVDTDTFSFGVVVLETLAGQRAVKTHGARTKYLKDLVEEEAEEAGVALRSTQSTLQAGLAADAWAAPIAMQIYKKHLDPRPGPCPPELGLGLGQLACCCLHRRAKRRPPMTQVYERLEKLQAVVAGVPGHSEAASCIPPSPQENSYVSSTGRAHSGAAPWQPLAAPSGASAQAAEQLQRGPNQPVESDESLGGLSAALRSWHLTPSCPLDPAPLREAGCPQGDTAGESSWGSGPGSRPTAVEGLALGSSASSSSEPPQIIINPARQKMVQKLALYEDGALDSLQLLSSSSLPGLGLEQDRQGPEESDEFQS
# T15 sequence (Q16644 whole entry): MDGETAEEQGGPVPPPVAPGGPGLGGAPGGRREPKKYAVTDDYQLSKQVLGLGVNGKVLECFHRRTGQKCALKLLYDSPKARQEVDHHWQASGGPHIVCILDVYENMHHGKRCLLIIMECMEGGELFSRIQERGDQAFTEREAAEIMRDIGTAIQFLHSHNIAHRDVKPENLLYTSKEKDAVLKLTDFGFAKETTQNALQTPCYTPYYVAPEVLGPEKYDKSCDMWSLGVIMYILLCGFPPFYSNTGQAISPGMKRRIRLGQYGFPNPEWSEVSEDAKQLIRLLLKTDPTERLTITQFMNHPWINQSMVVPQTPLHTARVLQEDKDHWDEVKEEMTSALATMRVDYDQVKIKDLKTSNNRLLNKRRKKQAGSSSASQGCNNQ
# T10 sequence (P42681 whole entry): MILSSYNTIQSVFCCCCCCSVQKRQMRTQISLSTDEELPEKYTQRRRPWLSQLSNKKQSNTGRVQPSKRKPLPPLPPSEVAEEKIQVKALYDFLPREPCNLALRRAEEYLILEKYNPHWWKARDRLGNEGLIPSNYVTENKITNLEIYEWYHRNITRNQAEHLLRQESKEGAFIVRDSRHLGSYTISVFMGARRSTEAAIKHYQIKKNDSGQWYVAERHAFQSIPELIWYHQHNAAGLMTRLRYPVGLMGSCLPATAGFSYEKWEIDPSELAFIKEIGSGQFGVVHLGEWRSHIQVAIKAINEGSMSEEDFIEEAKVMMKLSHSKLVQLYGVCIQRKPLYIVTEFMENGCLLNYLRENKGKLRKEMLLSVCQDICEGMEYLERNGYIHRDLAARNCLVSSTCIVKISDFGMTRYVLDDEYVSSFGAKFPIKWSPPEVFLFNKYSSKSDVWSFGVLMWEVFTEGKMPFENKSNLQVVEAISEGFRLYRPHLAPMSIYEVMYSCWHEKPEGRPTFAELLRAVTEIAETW
# T18 sequence (Q9H422 whole entry): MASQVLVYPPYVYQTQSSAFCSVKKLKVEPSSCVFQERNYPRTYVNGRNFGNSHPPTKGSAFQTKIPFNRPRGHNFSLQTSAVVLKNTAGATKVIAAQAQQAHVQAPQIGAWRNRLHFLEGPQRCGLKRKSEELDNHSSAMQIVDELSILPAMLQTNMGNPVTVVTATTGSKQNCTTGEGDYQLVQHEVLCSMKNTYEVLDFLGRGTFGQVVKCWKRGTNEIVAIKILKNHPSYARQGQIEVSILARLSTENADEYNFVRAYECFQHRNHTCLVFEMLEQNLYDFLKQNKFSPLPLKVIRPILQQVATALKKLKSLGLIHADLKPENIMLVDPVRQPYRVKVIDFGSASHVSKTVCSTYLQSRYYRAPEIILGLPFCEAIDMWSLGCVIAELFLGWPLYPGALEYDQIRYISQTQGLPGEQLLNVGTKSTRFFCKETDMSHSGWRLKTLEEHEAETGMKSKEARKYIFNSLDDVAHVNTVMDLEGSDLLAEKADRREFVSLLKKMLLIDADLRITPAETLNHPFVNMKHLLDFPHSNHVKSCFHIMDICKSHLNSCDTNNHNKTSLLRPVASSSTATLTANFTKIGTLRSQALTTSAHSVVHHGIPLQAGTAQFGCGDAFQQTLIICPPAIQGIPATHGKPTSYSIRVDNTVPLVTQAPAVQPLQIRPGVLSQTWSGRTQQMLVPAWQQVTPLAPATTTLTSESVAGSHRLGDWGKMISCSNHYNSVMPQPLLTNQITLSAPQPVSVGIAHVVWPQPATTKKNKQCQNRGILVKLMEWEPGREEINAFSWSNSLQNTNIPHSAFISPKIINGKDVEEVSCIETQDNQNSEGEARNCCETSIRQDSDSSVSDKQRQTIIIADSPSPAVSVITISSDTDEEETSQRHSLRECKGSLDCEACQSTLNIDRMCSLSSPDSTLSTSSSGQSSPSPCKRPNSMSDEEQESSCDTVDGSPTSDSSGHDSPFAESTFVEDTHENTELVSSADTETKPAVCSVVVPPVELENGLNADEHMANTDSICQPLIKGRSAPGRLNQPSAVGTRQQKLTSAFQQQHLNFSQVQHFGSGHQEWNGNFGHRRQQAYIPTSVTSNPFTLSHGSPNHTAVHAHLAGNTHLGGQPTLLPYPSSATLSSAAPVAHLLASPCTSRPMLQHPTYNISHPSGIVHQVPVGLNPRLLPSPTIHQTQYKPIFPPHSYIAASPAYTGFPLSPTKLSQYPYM
# T20 sequence (O00418 whole entry): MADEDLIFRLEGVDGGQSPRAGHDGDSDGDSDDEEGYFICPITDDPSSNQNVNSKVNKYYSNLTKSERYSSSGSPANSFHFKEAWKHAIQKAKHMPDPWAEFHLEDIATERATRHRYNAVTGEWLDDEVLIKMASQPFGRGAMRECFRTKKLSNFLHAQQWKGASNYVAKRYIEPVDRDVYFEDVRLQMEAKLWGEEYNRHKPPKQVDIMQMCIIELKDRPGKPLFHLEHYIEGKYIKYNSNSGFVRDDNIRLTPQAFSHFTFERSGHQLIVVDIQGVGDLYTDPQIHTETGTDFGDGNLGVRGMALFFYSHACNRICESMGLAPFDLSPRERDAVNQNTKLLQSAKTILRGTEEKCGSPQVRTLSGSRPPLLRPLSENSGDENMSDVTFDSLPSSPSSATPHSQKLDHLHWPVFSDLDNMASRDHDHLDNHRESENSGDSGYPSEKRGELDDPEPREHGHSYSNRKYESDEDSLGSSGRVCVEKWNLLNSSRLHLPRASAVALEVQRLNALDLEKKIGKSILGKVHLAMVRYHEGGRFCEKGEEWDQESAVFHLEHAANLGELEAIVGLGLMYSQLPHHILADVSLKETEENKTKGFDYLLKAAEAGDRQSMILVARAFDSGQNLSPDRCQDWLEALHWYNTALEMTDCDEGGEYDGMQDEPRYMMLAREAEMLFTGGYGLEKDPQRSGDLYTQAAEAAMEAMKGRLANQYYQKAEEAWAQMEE
# T21 sequence (Q9BZL6 whole entry): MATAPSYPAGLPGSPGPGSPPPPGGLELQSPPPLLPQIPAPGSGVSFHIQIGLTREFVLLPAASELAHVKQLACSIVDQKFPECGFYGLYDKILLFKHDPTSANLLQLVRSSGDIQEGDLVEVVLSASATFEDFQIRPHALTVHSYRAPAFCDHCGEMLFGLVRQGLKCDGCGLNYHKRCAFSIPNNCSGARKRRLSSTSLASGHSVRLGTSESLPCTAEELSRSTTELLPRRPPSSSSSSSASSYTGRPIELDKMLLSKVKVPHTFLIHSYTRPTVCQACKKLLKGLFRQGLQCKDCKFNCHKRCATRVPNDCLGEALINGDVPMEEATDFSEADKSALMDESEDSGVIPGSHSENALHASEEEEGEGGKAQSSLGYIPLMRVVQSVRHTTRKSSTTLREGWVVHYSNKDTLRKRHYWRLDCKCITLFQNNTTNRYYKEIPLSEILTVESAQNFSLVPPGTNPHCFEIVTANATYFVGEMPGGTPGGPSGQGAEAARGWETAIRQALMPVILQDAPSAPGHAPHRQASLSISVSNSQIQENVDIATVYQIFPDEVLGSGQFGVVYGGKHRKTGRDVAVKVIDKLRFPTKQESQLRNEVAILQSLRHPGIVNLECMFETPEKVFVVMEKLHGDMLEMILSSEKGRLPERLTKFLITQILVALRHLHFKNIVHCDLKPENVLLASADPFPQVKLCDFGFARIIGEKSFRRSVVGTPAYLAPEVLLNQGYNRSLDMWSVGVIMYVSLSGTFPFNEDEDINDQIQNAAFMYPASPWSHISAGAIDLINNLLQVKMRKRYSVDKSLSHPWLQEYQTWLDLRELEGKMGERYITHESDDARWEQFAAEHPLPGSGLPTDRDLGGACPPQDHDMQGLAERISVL
smiles,measurement,setting,value
COc1ccc(-c2cc(C(=O)Nc3cc(-c4c(-c5ccc(F)cc5)noc4C(C)C)ccn3)n(CC3NCC(O)C3O)c2)cc1 (centres unmarked) [29d],remaining activity at 1 µM,[1],98%
same,remaining activity at 1 µM,[2],92%
same,remaining activity at 1 µM,[3],119%
same,remaining activity at 1 µM,[4],98%
same,remaining activity at 1 µM,[5],100%
same,remaining activity at 1 µM,[6],94%
same,remaining activity at 1 µM,[7],100%
same,remaining activity at 1 µM,[8],90%
same,remaining activity at 1 µM,[9],103%
same,remaining activity at 1 µM,[10],119%
same,remaining activity at 1 µM,[11],125%
same,remaining activity at 1 µM,[12],116%
same,remaining activity at 1 µM,[13],103%
same,remaining activity at 1 µM,[14],111%
same,remaining activity at 1 µM,[15],91%
same,remaining activity at 1 µM,[16],91%
same,remaining activity at 1 µM,[17],92%
same,remaining activity at 1 µM,[18],109%
same,remaining activity at 1 µM,[19],96%
same,remaining activity at 1 µM,[20],99%
same,remaining activity at 1 µM,[21],110%
same,remaining activity at 1 µM,[22],108%
same,remaining activity at 1 µM,[23],91%
same,remaining activity at 1 µM,[24],116%
same,remaining activity at 1 µM,[25],102%
same,remaining activity at 1 µM,[26],63%
